Results from US20190125753A1, “COMPOUNDS AND METHODS FOR INCREASING HEMATOPOIESIS” (University of Southern California, priority 2016, published 2019).

Assays:
bone marrow HSPC = assay: Competitive repopulation assay with bone marrow of 7Gy irradiated mice; format: in vivo, mouse
Experimental: In the hematopoietic system, the LTR-HSC or pluripotent HSC sits atop the hematopoietic hierarchy. LTR-HSCs subsequently generate “Short Term Repopulating” hematopoietic stem cells (STR-HSC), and then progenitor cells. After radiation induced myeloid-ablation, there is a significant loss of progenitor cells. To investigate the target cell population in irradiated mice, YH250 or DMSO were administrated to 7Gy irradiated animals 24 hours post radiation. Then, 7 or 14 days post radiation (6 or 13 days after YH250 or DMSO administration), bone marrow cells were recovered from animals and competitive repopulation assay was performed to study YH250 function in stimulating HSPC proliferation. 1×10^6 testing bone marrow cells were mixed with 2×10^5 competitor cells (from non-irradiated mice) and injected into lethally irradiated mice (9Gy) (FIG. 18A). HSPC cell number will be reflected in the short-term (1-2 months after BMT) or long-term (≥4 month of BMT) engraftment. […] The same observation also applies to cells isolated 14th day post 7Gy radiation.
The expanded LTR-HSC at day 6 post YH250 stimulation then starts to develop and give more STR-HSC by day 14 post radiation. There is no further LTR-HSC expanding from day 6 to day 13 post YH250. Thus, one dose of YH250 administrated 24 hours post 7Gy radiation stimulated symmetric non-differentiation LTR-HSC expansion and followed with STR-HSC expansion.

[1] = target: T1, interaction between β-catenin and p300 (Mus musculus, UniProt B2RWS6); assay: Co-immunoprecipitation (pull-down) in C2Cl2 myoblast cells; format: cell-based; details: C2Cl2 cells treated 24 hours
T1 construct: endogenous in cells; host or cells: mouse myoblast C2C12 cells
T1 sequence (B2RWS6 2-2412 limits assumed): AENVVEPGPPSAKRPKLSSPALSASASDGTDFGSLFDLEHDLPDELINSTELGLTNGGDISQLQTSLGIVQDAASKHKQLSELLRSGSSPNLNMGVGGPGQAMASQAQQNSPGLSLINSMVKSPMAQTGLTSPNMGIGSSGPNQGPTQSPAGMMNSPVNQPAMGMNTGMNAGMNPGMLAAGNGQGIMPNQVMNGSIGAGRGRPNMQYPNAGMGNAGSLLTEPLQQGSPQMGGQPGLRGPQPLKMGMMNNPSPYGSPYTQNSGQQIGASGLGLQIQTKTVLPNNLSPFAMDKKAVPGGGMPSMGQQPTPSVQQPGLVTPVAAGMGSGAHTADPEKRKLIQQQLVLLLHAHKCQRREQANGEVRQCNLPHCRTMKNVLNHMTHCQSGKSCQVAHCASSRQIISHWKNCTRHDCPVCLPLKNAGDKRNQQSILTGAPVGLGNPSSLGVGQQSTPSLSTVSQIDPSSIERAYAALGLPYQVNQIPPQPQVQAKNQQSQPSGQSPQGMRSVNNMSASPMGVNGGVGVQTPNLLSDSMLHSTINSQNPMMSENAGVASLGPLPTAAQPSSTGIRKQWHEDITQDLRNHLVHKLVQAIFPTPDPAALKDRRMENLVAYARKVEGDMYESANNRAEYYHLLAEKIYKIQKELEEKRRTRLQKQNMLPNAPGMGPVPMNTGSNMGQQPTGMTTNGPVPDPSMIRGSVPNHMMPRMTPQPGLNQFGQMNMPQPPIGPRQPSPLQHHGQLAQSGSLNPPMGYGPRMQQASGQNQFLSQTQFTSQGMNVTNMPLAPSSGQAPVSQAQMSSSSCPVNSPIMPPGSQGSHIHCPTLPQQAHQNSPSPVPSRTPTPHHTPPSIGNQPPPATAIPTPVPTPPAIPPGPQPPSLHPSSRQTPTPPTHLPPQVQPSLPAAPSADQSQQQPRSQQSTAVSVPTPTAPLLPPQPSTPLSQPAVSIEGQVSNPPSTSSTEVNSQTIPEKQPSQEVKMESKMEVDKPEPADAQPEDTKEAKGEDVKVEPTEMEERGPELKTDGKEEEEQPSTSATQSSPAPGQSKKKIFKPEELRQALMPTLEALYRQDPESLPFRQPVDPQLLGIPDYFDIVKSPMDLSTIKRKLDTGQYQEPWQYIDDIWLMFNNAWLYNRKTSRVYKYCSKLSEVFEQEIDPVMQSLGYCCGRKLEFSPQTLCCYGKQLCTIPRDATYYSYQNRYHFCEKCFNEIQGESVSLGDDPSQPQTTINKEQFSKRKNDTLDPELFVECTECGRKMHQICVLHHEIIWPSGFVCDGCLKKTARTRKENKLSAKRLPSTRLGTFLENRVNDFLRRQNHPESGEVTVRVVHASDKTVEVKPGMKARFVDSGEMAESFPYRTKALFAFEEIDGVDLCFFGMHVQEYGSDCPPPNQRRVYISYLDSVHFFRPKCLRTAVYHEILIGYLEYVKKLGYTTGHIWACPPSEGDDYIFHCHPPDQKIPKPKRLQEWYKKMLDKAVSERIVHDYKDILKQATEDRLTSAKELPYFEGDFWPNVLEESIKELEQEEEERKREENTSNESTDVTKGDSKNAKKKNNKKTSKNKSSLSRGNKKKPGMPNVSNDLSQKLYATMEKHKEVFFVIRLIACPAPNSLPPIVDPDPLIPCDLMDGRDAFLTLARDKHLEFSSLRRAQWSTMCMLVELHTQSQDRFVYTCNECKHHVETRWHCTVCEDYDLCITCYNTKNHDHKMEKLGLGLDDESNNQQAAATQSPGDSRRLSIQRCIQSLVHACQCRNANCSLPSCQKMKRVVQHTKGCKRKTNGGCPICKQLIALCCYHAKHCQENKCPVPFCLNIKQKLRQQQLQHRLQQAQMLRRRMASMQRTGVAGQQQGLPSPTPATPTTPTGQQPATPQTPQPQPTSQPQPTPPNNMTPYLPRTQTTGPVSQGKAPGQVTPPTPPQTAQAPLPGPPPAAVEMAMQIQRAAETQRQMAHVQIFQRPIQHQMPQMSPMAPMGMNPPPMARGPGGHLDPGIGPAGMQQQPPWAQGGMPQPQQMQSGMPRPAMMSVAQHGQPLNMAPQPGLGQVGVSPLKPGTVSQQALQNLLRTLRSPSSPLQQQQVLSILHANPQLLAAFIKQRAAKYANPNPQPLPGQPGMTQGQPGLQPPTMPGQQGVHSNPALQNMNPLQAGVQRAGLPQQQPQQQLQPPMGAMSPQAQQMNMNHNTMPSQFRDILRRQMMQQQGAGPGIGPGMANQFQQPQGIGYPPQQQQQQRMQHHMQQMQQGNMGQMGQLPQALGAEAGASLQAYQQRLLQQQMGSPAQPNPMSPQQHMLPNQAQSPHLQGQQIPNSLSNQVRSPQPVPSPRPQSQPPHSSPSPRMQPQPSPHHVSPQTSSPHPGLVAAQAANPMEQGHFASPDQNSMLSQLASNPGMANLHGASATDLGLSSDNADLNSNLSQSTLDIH
Experimental: YH249 and YH250 were selected from the compounds described herein for further testing. Co-immunoprecipitation (CO-IP) was performed with mouse myoblast C2Cl2 cells. Cells were treated with DMSO (control), or YH249, or YH250 for 24 hours. Cell lyses were pulled down with anti-p300 or anti-CBP antibodies, run on gel and probed with anti-β-catenin antibody. […] A biotinylated version of YH249 (Bio-249) was prepared via the propargyl amide variant. Using a biotin with a linker and a terminal azide residue, we were able to couple the biotin to the YH249 core via a 3+2 cyclization reaction to provide Bio-249. Bio-249 was incubated with lysates from C2Cl2 myoblasts, either in the presence or absence of competitor YH249 for 4 h at 4° C. and then bound to streptavidin agarose beads. After extensive washing the bound proteins were eluted and run out on an […].

[2] = system: Axin2 and survivin (Birc5) gene expression; assay: qPCR gene expression in bone marrow Sca-1posit cells of treated mice; format: in vivo, mouse; details: 2 mg/kg overnight, Sca-1+ population
Experimental: Axin2 is a classical Wnt/catenin target genes and plays important regulatory roles in Wnt signaling. The inhibitor of apoptosis (IAP) family member survivin (Birc5) is another Wnt/catenin target gene. […] To study YH250 effects in bone marrow stem cell population gene expression, female C57/Black mice were treated with DMSO or YH250 (2 mg/kg) overnight and bone marrow Sca-1posit cells were isolated. Then, total RNA were extracted for cDNA synthesis and qPCR assay (FIG. 5A). As shown in FIGS. 5B-5C, both Axin2 and survivin gene expression were up regulated by YH250 in the Sca-1^+ population of the treated animals.

[3] = system: LTR-HSC (LSKCD34−CD135−CD150+ cells); assay: BrdU incorporation in bone marrow HSPC in vivo; parameters: species or system mouse; details: 24 or 48 hrs post administration
Description: P300/-catenin antagonists stimulate HSPC proliferation both in vitro and in vivo. In this study, 24 or 48 hrs post either DMSO or YH250 administration, BrdU was given to animals and bone marrow cells were isolated and analyzed to determine HSPC proliferation (FIG. 15A). Bone marrow cells were stained with antibodies to lineage markers (CD3, CD4, CD8, B220, CD16, Gr-1, Mac-1), antibodies to Sca-1, c-kit, CD135, CD34, CD150 and BrdU.

[4] = target: T2, CBP/γ-catenin interaction (Mus musculus, UniProt P45481); assay: Co-IP of bone marrow Sca-1posit cells from treated mice (anti-CBP); format: in vivo; details: YH250 2 mg/kg subcutaneously, 24 hrs
T2 construct: bone marrow Sca-1posit cells were isolated with Anti-Sca-1 microbeads; from tissue; host or cells: bone marrow Sca-1 positive cells of female C57/Black mice dosed in vivo
T2 sequence (P45481 2-2441 limits assumed): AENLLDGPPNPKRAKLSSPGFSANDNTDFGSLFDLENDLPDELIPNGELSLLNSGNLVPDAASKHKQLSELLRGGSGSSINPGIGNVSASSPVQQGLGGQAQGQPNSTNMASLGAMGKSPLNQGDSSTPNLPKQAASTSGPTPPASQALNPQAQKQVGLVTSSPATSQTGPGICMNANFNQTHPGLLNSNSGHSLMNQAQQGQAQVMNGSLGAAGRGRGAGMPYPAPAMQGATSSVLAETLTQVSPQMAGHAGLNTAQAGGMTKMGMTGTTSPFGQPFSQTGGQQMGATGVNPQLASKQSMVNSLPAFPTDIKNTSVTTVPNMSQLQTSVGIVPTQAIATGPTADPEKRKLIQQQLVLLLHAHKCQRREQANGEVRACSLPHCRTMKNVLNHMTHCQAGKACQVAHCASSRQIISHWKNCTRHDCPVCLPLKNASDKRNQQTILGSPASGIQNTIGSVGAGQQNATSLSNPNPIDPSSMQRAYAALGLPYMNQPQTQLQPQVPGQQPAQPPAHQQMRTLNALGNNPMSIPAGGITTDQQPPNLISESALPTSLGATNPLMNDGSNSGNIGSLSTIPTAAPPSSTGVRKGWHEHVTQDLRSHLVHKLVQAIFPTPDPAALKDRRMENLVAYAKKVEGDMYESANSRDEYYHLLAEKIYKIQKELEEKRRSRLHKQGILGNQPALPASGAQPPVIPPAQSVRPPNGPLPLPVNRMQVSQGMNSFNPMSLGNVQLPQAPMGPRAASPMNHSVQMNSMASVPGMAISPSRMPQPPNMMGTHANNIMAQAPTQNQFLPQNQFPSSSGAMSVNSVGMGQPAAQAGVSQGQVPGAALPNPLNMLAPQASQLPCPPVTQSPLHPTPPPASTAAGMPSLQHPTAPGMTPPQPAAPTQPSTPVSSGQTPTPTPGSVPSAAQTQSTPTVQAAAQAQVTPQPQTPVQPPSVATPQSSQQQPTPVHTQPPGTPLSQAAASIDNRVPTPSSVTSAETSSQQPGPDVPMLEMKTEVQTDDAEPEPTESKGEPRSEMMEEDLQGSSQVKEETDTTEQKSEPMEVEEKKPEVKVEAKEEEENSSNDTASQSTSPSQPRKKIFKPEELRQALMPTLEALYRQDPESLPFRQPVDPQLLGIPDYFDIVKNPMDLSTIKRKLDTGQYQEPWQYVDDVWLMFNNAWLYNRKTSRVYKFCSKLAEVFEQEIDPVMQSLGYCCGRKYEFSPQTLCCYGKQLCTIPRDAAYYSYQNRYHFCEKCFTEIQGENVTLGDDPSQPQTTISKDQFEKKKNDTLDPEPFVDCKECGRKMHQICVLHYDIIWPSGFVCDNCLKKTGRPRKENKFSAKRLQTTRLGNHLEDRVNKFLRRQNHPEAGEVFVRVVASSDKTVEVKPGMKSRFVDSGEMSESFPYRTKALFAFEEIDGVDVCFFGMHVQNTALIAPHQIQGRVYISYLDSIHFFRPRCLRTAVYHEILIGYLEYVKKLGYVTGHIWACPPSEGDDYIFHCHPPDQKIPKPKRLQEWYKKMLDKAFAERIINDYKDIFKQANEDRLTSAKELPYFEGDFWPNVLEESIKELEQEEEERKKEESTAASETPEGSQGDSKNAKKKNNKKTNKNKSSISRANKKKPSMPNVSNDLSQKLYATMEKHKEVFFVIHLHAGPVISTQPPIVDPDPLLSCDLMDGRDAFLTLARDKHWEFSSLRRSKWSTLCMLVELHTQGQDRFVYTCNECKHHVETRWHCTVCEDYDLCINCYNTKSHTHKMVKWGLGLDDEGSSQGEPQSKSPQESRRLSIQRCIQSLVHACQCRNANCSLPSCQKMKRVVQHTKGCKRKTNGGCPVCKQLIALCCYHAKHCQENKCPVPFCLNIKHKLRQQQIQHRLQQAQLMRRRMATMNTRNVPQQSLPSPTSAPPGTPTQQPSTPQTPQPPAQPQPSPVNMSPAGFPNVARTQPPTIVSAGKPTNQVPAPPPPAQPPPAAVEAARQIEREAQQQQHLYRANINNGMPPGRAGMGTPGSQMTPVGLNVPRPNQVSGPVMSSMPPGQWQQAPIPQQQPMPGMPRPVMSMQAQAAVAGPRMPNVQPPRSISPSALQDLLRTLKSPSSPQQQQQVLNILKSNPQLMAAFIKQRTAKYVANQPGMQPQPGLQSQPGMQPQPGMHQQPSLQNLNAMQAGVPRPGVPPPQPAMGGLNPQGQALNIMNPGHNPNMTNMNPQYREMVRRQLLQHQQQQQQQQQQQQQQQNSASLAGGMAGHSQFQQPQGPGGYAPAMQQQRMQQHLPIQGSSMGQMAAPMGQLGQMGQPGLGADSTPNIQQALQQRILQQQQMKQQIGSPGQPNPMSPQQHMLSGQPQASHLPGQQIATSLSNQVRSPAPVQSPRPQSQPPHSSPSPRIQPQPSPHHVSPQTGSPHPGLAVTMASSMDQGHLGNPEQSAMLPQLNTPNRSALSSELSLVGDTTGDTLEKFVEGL
Experimental: (§1) YH250 was used in this study. Female C57/Black mice were administrated with either DMSO (solvent control) or YH250 (2 mg/kg) subcutaneously. 24 hrs later, bone marrow Sca-1posit cells were isolated with Anti-Sca-1 microbeads (Miltenyi Biotec, Cat#130-092-529) for co-immunoprecipitation (FIG. 4A). Cells were then lysed and incubated with either anti-CBP (A22) or anti-p300 (C20) antibodies. Then, the immunoprecipitation complex were electrophoresed and detected with antibodies to either β-catenin or γ-catenin. […] This confirms that YH250 directly disrupts the p300/catenin interaction thereby enhancing the CBP/catenin interaction in HSPCs.

cord blood cells = assay: Cord blood cells incubated 24 hrs then BMT to transgenic NSG mice; format: in vivo, human; details: 10 μM 24 hrs in 4GF or 6GF medium; day 28th post BMT
Experimental: To examine p300/β-catenin antagonist YH250 effects on cord blood HSC in BMT, cord blood cells were incubated with 4GF or 6GF medium and 10 μM of YH250 for 24 hrs, then cells were recovered and transplanted to irradiated NOD.Cg-Prkdc^scidIL1rg^tmlwjlTg(CMV-[…], CSF2, KITLG)1Eva, MloySzJ; JAX stock#013062) mice, these are transgenic NSG mice expressing human interleukin-3, human GM-CSF and human stem cell factor. Blood were collected at day 28th post BMT to determine engraftment.

mouse bone marrow cells = assay: Colony-forming cell (CFC) assay after 4 h in vitro treatment; format: cell-based
Experimental: Brief (less than 24 hours) treatment of HSC with YH250 or DMSO was conducted before the CFC or CFU-S12 assay. Mouse bone marrow cells were treated with DMSO (solvent control) or YH250 for 4 hours in serum free HSC expansion medium before the cells were recovered for a colony forming assay. 7-8 Days after cell plating in methylcellulose medium (Stemcell Technologies, Methocult GF M3434, Cat#3434), colonies were scored, and the cells from each plate were recovered and counted.
In fact, they also show similar biological functions with respect to HSPC.

[5] = target: T3, p300/γ-catenin interaction (Mus musculus, UniProt B2RWS6); assay: Co-IP of bone marrow Sca-1posit cells from treated mice (anti-p300); format: in vivo; details: YH250 2 mg/kg subcutaneously, 24 hrs
T3 construct: bone marrow Sca-1posit cells were isolated with Anti-Sca-1 microbeads; from tissue; host or cells: bone marrow Sca-1 positive cells of female C57/Black mice dosed in vivo
T3 sequence (B2RWS6 2-2412 limits assumed): as the sequence (B2RWS6 2-2412 limits assumed) above
Experimental: as §1

[6] = bone marrow cells recovered day 7 post radiation
[7] = bone marrow cells recovered day 14 post radiation
[8] = 4 hours incubation then CFC assay

Q: What does the source list for COc1cccc(CNC(=O)N2C3CN(Cc4cc(Cl)cc(Cl)c4N(C)C)C(=O)[C@H](Cc4ccc(O)cc4)N3C(=O)CN2C)c1OC (stereo partly shown) [YH250]?
A: long-term engraftment (bone marrow HSPC; [6]): 4.1±1.6; short term engraftment (bone marrow HSPC; [6]): 5.8±2.4; long-term engraftment (bone marrow HSPC; [7]): 3.4±0.57; short term engraftment (bone marrow HSPC; [7]): 12.3±2.0; engraftment vs DMSO treated animals, short term and long term (bone marrow HSPC; cells recovered 7th day post 7Gy radiation, one dose 24 hours post radiation): better engraftment; β-catenin in the p300 pull down lane [1]: significantly decreased levels of β-catenin; Axin2 gene expression [2]: up regulated; survivin gene expression [2]: up regulated; BrdU positive cells in LTR-HSC [3]: more BrdU positive cells; CBP/γ-catenin interaction [4]: promotes CBP/γ-catenin interaction; human CD34posit cells in blood vs DMSO treated cells (cord blood cells): more human CD34posit cells; CELL#/plate (mouse bone marrow cells; [8]): 9.5 × 10^5; CFC#/plate (mouse bone marrow cells; [8]): 29; CFC colony number vs DMSO (mouse bone marrow cells; 4 hours treatment, serum free medium, scored 7-8 days after plating): not significantly different; cell number in each plate vs DMSO (mouse bone marrow cells; 4 hours treatment, cells recovered from plate): increased cell number in each plate; p300/γ-catenin interaction [5]: inhibits p300/γ-catenin interaction
